Assay results as given in patent US9193728B2, “Fused tetracyclic pyrido [4,3-B] indole and pyrido [3,4-B] indole derivatives and methods of use” (Medivation Technologies, Inc., priority 2010, dated 2015).

Legend:
[1] = target: T1, human recombinant histamine H1 receptor (Homo sapiens, UniProt P35367); assay: Histamine H1 radioligand binding ([3H]Pyrilamine); details: compound at 1 μM; 1.2 nM [3H]Pyrilamine; read-out: Histamine Binding (1 μM) H1, percentage inhibition
T1 construct: expressed in transfected cells; host or cells: CHO-K1
T1 sequence (P35367 whole entry): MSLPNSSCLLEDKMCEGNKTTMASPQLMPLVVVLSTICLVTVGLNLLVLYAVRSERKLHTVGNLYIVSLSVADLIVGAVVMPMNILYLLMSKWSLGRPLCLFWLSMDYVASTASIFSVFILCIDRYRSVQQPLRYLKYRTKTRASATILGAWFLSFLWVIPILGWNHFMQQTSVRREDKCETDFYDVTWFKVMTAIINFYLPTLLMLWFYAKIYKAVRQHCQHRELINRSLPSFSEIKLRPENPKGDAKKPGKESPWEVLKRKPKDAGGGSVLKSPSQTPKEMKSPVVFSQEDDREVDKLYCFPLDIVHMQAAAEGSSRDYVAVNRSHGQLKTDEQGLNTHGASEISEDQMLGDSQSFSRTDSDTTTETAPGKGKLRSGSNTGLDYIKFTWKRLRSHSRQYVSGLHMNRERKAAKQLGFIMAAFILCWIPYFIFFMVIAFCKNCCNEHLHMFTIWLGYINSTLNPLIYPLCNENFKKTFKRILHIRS
Method: To evaluate in radioligand binding assays the activity of compounds of the invention, human recombinant histamine H1 receptor expressed in Chinese hamster ovary (CHO) K1 cells (De Backer, M. et al, Biochem. Biophys. Res. Comm. 197(3):1601, 1993) in a modified Tris-HCl buffer (50 mM Tris-HCl, pH 7.4, 2 mM MgCl2, 100 mM NaCl, 250 mM Sucrose) was used. Compounds of the invention were incubated with 1.2 nM [^3H]Pyrilamine for 180 min. at 25° C. Non-specific binding was estimated in the presence of 1 μM Pyrilamine. Receptor proteins were filtered and washed, the filters were then counted to determine [^3H]Pyrilamine specifically bound. Compounds were screened at 1 μM or lower, using 1% DMSO as vehicle. Biochemical assay results are presented as the percent inhibition of specific binding in Table 2.

[2] = target: T2, human recombinant dopamine D2L receptor (Homo sapiens, UniProt P14416); assay: Dopamine D2L radioligand binding ([3H]Spiperone); details: compound at 1 μM; read-out: Dopamine (1 μM) D2L, percentage inhibition of ligand binding
T2 construct: expressed in transfected cells; host or cells: CHO
T2 sequence (P14416 whole entry): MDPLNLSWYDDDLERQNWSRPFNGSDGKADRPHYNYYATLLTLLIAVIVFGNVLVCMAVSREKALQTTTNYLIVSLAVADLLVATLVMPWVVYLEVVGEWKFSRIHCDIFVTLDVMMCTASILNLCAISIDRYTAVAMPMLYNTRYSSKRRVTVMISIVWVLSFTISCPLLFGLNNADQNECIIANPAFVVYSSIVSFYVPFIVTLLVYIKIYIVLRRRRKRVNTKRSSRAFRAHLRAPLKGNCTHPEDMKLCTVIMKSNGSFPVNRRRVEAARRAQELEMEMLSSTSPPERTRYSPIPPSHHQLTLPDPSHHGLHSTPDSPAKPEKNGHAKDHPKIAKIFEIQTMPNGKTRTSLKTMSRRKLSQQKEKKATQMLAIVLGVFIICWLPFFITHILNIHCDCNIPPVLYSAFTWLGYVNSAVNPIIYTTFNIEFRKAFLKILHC
Method: To evaluate in radioligand binding assays the activity of compounds of the invention, human recombinant dopamine D2L receptor expressed in Chinese hamster ovary (CHO) cells (Grandy, D. et al, Proc. Natl. Acad. Sci. USA. 86:9762, 1989; Hayes, G. et al, Mol. Endocrinol. 6:920, 1992) in a modified Tris-HCl buffer (50 mM Tris-HCl, pH 7.4, 1.4 mM Ascorbic Acid, 0.001% BSA, 150 mM NaCl) was used. Compounds of the invention were incubated with 0.16 nM [^3H]Spiperone for 120 min. at 25° C. Non-specific binding was estimated in the presence of 10 μM Haloperidol. Receptor proteins were filtered and washed, the filters were then counted to determine [^3H]Spiperone specifically bound. Compounds were screened at 1 μM or lower, using 1% DMSO as vehicle. Biochemical assay results are presented as the percent inhibition of specific binding in Table 3.

[3] = target: T3, human recombinant serotonin (5-Hydroxytryptamine) 5-HT2A receptor (Homo sapiens, UniProt P28223); assay: Serotonin 5-HT2A radioligand binding ([3H]Ketanserin); details: compound at 0.1 μM; read-out: Serotonin (0.1 μM) 5-HT2A, percentage inhibition of ligand binding
T3 construct: expressed in transfected cells; host or cells: CHO-K1
T3 sequence (P28223 whole entry): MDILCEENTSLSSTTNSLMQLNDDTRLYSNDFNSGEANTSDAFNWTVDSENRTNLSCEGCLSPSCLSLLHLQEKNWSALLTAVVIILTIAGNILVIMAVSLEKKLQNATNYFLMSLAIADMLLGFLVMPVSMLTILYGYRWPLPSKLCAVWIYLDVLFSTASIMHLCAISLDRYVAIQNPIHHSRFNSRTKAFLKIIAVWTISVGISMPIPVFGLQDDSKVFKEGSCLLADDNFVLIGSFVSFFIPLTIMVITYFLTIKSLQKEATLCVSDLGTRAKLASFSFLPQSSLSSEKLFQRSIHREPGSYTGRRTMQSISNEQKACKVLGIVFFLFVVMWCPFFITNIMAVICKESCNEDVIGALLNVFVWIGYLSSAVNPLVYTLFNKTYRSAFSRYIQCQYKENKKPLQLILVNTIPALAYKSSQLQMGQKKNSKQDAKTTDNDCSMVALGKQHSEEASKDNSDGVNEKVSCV
Method: To evaluate in radioligand binding assays the activity of compounds of the invention, human recombinant serotonin (5-Hydroxytryptamine) 5-HT2A receptor expressed in Chinese hamster ovary (CHO)-K1 cells (Bonhaus, D. et al, Br. J. Pharmacol. 115:622, 1995; Saucier, C. et al, J. Neurochem. 68:1998, 1997) in a 50 mM Tris-HCl buffer, pH 7.4, was used. Compounds of the invention were incubated with 0.5 nM [^3H]Ketanserin for 60 min. at 25° C. Non-specific binding was estimated in the presence of 1 μM Mianserin. Receptor proteins were filtered and washed, the filters were then counted to determine [^3H]Ketanserin specifically bound. Compounds were screened at 1 μM or lower, using 1% DMSO as vehicle. Biochemical assay results are presented as the percent inhibition of specific binding in Table 4.

[4] = target: T4, human recombinant serotonin (5-Hydroxytryptamine) 5-HT2C receptor (Homo sapiens, UniProt P28335); assay: Serotonin 5-HT2C radioligand binding ([3H]Mesulergine); details: compound at 0.1 μM; read-out: Serotonin (0.1 μM) 5-HT2C, percentage inhibition of ligand binding
T4 construct: expressed in transfected cells; host or cells: CHO-K1
T4 sequence (P28335 33-458): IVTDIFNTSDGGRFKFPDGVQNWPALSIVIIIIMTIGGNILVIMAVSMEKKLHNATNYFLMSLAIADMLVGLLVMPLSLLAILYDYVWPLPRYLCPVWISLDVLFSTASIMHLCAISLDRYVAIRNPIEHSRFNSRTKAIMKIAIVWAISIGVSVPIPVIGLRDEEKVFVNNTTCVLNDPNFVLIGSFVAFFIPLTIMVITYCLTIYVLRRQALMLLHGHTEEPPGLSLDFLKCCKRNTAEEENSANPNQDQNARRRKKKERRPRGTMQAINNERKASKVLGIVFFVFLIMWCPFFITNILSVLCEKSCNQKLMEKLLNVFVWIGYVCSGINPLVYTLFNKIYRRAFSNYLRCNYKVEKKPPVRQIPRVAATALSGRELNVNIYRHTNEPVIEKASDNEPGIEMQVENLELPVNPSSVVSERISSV
Method: To evaluate in radioligand binding assays the activity of compounds of the invention, human recombinant serotonin (5-Hydroxytryptamine) 5-HT2C receptor expressed in Chinese hamster ovary (CHO)-K1 cells (Wolf, W. et al, J. Neurochem. 69:1449, 1997) in a modified Tris-HCl buffer (50 mM Tris-HCl, pH 7.4, 0.1% Ascorbic Acid, 10 μM Pargyline) was used. Compounds of the invention were incubated with 1 nM [^3H]Mesulergine for 60 min. at 25° C. Non-specific binding was estimated in the presence of 1 μM Mianserin. Receptor proteins were filtered and washed, the filters were then counted to determine [^3H]Mesulergine specifically bound. Compounds were screened at 1 μM or lower, using 1% DMSO as vehicle. Biochemical assay results are presented as the percent inhibition of specific binding in Table 4.

[5] = target: T5, human recombinant serotonin (5-Hydroxytryptamine) 5-HT6 receptor (Homo sapiens, UniProt P50406); assay: Serotonin 5-HT6 radioligand binding ([3H]LSD); details: compound at 0.1 μM; read-out: Serotonin (0.1 μM) 5-HT6, percentage inhibition of ligand binding
T5 construct: expressed in transfected cells; host or cells: HeLa
T5 sequence (P50406 whole entry): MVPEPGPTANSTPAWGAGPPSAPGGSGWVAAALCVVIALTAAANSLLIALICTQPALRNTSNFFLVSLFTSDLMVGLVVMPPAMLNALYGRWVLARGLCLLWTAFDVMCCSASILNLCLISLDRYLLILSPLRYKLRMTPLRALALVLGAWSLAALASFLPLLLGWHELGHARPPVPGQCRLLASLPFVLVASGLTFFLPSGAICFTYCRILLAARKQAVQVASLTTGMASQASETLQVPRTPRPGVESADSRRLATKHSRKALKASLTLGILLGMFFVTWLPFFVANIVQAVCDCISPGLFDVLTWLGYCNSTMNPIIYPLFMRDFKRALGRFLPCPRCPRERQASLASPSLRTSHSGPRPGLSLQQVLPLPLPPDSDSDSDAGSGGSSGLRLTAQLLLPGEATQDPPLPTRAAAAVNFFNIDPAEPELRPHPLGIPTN
Method: To evaluate in radioligand binding assays the activity of compounds of the invention, human recombinant serotonin (5-Hydroxytryptamine) 5-HT6 receptor expressed in human HeLa cells (Monsma, F. Jr. et al, Mol. Pharmacol. 43:320, 1993) in a modified Tris-HCl buffer (50 mM Tris-HCl, pH 7.4, 150 mM NaCl, 2 mM Ascorbic Acid, 0.001% BSA) was used. Compounds of the invention were incubated with 1.5 nM [3H]Lysergic acid diethylamide (LSD) for 120 min. at 37° C. Non-specific binding was estimated in the presence of 5 μM Serotonin (5-HT). Receptor proteins were filtered and washed, the filters were then counted to determine [3H]LSD specifically bound. Compounds were screened at 1 μM or lower, using 1% DMSO as vehicle. Biochemical assay results are presented as the percent inhibition of specific binding in Table 4.

[6] = target: T6, human recombinant serotonin (5-Hydroxytryptamine) 5-HT7 receptor (Homo sapiens, UniProt P34969); assay: Serotonin 5-HT7 radioligand binding ([3H]LSD); details: compound at 0.1 μM; read-out: Serotonin (0.1 μM) 5-HT7, percentage inhibition of ligand binding
T6 construct: expressed in transfected cells; host or cells: CHO
T6 sequence (P34969 whole entry): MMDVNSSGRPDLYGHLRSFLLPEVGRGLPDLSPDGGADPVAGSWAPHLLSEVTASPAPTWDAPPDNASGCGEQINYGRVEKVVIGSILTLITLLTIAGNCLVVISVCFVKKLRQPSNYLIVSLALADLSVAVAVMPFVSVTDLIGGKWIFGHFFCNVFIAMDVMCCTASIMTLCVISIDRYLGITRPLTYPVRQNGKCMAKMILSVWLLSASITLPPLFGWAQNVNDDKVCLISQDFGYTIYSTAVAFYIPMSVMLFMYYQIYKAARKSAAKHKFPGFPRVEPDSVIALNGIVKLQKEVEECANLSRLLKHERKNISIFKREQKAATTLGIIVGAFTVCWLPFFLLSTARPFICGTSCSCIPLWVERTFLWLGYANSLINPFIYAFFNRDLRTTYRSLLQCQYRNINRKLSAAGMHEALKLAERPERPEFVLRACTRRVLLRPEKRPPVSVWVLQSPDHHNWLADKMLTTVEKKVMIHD
Method: To evaluate in radioligand binding assays the activity of compounds of the invention, human recombinant serotonin (5-Hydroxytryptamine) 5-HT7 receptor expressed in Chinese hamster ovary (CHO) cells (Roth, B. et al, J. Pharmacol. Exp. Ther. 268:1403, 1994; Shen, Y. et al, J. Biol. Chem. 268:18200, 1993) in a modified Tris-HCl buffer (50 mM Tris-HCl, pH 7.4, 10 mM MgCl2, 0.5 mM EDTA) was used. Compounds of invention were incubated with 5.5 nM [^3H]Lysergic acid diethylamide (LSD) for 120 min. at 25° C. Non-specific binding was estimated in the presence of 10 μM Serotonin (5-HT). Receptor proteins were filtered and washed, the filters were then counted to determine [^3H]LSD specifically bound. Compounds were screened at 1 μM or lower, using 1% DMSO as vehicle. Biochemical assay results are presented as the percent inhibition of specific binding in Table 4.

Compound | inhibition at 1 µM [1] | inhibition at 1 µM [2] | inhibition at 0.1 µM [3] | inhibition at 0.1 µM [4] | inhibition at 0.1 µM [5] | inhibition at 0.1 µM [6]
CN1CCc2c(c3cccc4c3n2CC(=O)N4)C1 [Compound 5] | 5% | 21% | -4% | 13% | 4% | 4%
CN1CCc2c(c3cccc4c3n2C(c2ccccc2)C(=O)N4)C1 (stereo not drawn) [Compound 6] | 46% | 41% | 12% | 7% | -6% | 30%
CN1CCc2c(c3cccc4c3n2CC(c2ccncc2)C4)C1 (stereo not drawn) [Compound 7] | 92% | 54% | 7% | -5% | -2% | 10%
CN1CCc2c(c3cccc4c3n2CCC4)C1 [Compound 8] | 49% | 15% | 30% | 48% | 9% | 14%
CN1CCc2c(c3cccc4c3n2CCO4)C1 [Compound 9, 8-methyl-1,2,7,8,9,10-hexahydro-[1,4]oxazino[2,3,4-hi]pyrido[4,3-b]indole] | 31% | 10% | 11% | 20% | 12% | 2%
CN1CCc2c(c3cccc4c3n2CC(c2ccncc2)S4)C1 (stereo not drawn) [Compound 10] | 84% | 32% | 23% | 8% | 23% | 12%
CN1CCc2c(c3cccc4c3n2CCS4)C1 [Compound 11, 8-methyl-1,2,7,8,9,10-hexahydropyrido[4,3-b][1,4]thiazino[2,3,4-hi]indole] | 39% | 10% | 27% | 57% | 18% | -8%
Cc1cc2c3c(c1)c1c(n3C(c3ccccc3)C2)CCN(C)C1 (stereo not drawn) [Compound 12] | 101% | 44% | 90% | 102% | 59% | 81%
Cc1cc2c3c(c1)c1c(n3CC2)CCN(CCCC(=O)c2ccc(F)cc2)C1 [Compound 13] | 64% | 91% | 98% | 93% | 31% | 62%
O=C(CCCN1CCc2c(c3cccc4c3n2CCC4)C1)c1ccc(F)cc1 [Compound 14] | 78% | 86% | 99% | 92% | 21% | 58%
Cc1cc2c3c(c1)c1c(n3CC(c3ccccc3)O2)CCN(C)C1 (stereo not drawn) [Compound 15, 5,8-dimethyl-2-phenyl-1,2,7,8,9,10-hexahydro-[1,4]oxazino[2,3,4-hi]pyrido[4,3-b]indole] | 96% | 76% | 10% | 4% | 21% | 9%
CN1CCc2c(c3cccc4c3n2CC(c2ccc(F)cc2)C4)C1 (stereo not drawn) [Compound 16] | 78% | 91% | 40% | 34% | 57% | 16%
Cc1cc2c3c(c1)c1c(n3CC(c3ccc(F)cc3)=CC2)CCN(C)C1 [Compound 156, (Z)-6-(4-fluorophenyl)-2,11-dimethyl-4,7,9,10,11,12-hexahydroazepino[3,2,1-hi]pyrido[4,3-b]indole] | 101% | 65% | 98% | 93% | 62% | 49%
Cc1cc2c3c(c1)c1c(n3CC(c3ccc(F)cc3)CC2)CCN(C)C1 (stereo not drawn) [Compound 157, 6-(4-fluorophenyl)-2,11-dimethyl-4,5,6,7,9,10,11,12-octahydroazepino[3,2,1-hi]pyrido[4,3-b]indole] | 95% | 83% | 90% | 96% | 91% | 80%
CN1CCc2c(c3cccc4c3n2CC(=O)N4Cc2ccncc2)C1 [Compound 159] | 16% | 6% | 53% | 35% | 4% | 38%
Cc1ccc(C2Cn3c4c(c5cccc2c53)CN(C)CC4)cn1 (stereo not drawn) [Compound 210] | – | – | 23% | – | 1% | 21%
Cc1cc2c(-c3ccccc3)cn3c4c(c(c1)c23)CN(C)CC4 [Compound 211] | – | – | 50% | – | 47% | 78%
